Here are results for seven compounds from ChEMBL document CHEMBL1201862, “PubChem BioAssay data set” (2004).

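48-hour exposure; five concentrations; linearly interpolated endpoints. At the GI50, growth is halved.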 Active and inactive are the calls of the source. Cut-off read from the data, not from the text of the source: active = GI50 up to about 1.1 µM and inactive = higher. Bounds are passed on as bounds.

Test systems include OVCAR-4; Malme-3M; NCI-H23; TK-10; OVCAR-8; MDA-MB-435; UO-31; COLO 205; U-251; NCI-H522; SK-MEL-2; DU-145; NCI-H460; BT-549; A549; Hs-578T; CCRF-CEM; 786-0; OVCAR-3; MOLT-4.
Holding throughout (experiment): DTP human tumour cell line panel, 48 h

On to `Clc1ccc(C2c3ccccc3-c3nc4ccccc4n32)cc1` (stereo not given), for which the GI50 with OVCAR-4 was 15.9 µM (inactive); with Malme-3M, 38.8 µM (inactive); in the experiment on NCI-H23, 15.5 µM (inactive); in the experiment with TK-10, > 66.7 µM (inactive); with OVCAR-8, 18.2 µM (inactive); with MDA-MB-435 it was 32.7 µM (inactive). For the same compound, the GI50 is 4.05 µM (inactive) in the experiment with UO-31; > 61.2 µM (inactive) in the experiment on COLO 205; 24.3 µM (inactive) in the experiment on U-251; 11.6 µM (inactive) with NCI-H522; 22.2 µM (inactive) in the experiment on SK-MEL-2; 58.2 µM (inactive) in the experiment on DU-145. Besides, the GI50 in the experiment with NCI-H460 is 19.7 µM (inactive); in the experiment with BT-549 it was 43.5 µM (inactive); in the experiment on A549, 7.33 µM (inactive); in the experiment with Hs-578T, 4.92 µM (inactive); with CCRF-CEM it was 17.9 µM (inactive); in the experiment with 786-0, 17.7 µM (inactive). Also, the GI50 was 12.6 µM (inactive) in the experiment with OVCAR-3 and 8.09 µM (inactive) in the experiment with MOLT-4.
As for `CCN=C=NCCCN(C)C`, the GI50 in the experiment with OVCAR-4, with Malme-3M, in the experiment on NCI-H23, with TK-10, in the experiment on OVCAR-8 and in the experiment with MDA-MB-435 was > 100 µM (inactive) each time. The GI50 in the experiment on UO-31, with COLO 205, in the experiment on U-251, in the experiment on NCI-H522, with SK-MEL-2 and with DU-145 was > 100 µM (inactive) throughout. Also, the GI50 in the experiment on NCI-H460, in the experiment with BT-549, in the experiment on A549, in the experiment with Hs-578T, in the experiment with CCRF-CEM and in the experiment with 786-0 was > 100 µM (inactive) each time. Further, the GI50 with OVCAR-3 and in the experiment with MOLT-4 was > 100 µM (inactive) each time.
As to `ClC(Cl)=C1C(=C(Cl)Cl)C(Cl)(Cl)C1(Cl)Cl`, the GI50 was 5.07 µM (inactive) in the experiment on OVCAR-4; 2.42 µM (inactive) in the experiment with Malme-3M; 1.04 µM (active) in the experiment with NCI-H23; 3.52 µM (inactive) in the experiment on TK-10; 1.49 µM (inactive) with OVCAR-8; 2.71 µM (inactive) in the experiment on MDA-MB-435. For the same compound, the GI50 was 3.05 µM (inactive) with UO-31; 2.92 µM (inactive) with COLO 205; 5.41 µM (inactive) in the experiment on U-251; 0.0612 µM (active) in the experiment on NCI-H522; 1.29 µM (inactive) in the experiment with SK-MEL-2; 10.7 µM (inactive) with DU-145. Besides, the GI50 in the experiment with NCI-H460 was 3.93 µM (inactive); in the experiment with BT-549, 2.77 µM (inactive); in the experiment on A549 it was 9.51 µM (inactive); with Hs-578T it was 2.36 µM (inactive); in the experiment on CCRF-CEM, 0.101 µM (active); in the experiment with 786-0, 1.07 µM (active). In addition, the GI50 in the experiment on OVCAR-3 was 4.31 µM (inactive); with MOLT-4 it was 0.126 µM (active).
Turning to `Nc1nc(N)c2ncn(Cc3ccccc3)c2n1`, the GI50 with OVCAR-4, in the experiment with Malme-3M, in the experiment with NCI-H23, with TK-10, in the experiment with OVCAR-8 and in the experiment on MDA-MB-435 was > 100 µM (inactive) each time. The GI50 with UO-31, with COLO 205, in the experiment on U-251, in the experiment on NCI-H522, in the experiment with SK-MEL-2 and with DU-145 was > 100 µM (inactive) throughout. In addition, the GI50 with BT-549, in the experiment with A549, with Hs-578T, in the experiment with CCRF-CEM, in the experiment on 786-0 and in the experiment with OVCAR-3 was > 100 µM (inactive) in each case. Besides, the GI50 with MOLT-4 is > 100 µM (inactive).
Turning to `CN(C)c1ccc(C(C#N)N2CCCN(C(C#N)c3ccc(N(C)C)cc3)C2c2ccc(N(C)C)cc2)cc1` (stereo not given), the GI50 with OVCAR-4, in the experiment on Malme-3M, with NCI-H23, in the experiment with TK-10, in the experiment with OVCAR-8 and in the experiment with MDA-MB-435 was > 100 µM (inactive) throughout. Moreover, the GI50 in the experiment on UO-31, in the experiment with COLO 205, with U-251, with NCI-H522, with SK-MEL-2 and in the experiment on DU-145 was > 100 µM (inactive) in each case. In addition, the GI50 in the experiment with BT-549, with A549, in the experiment with Hs-578T, in the experiment with CCRF-CEM, with 786-0 and with OVCAR-3 was > 100 µM (inactive) in each case. Further, the GI50 with MOLT-4 was > 100 µM (inactive).
Take `Cc1ccc(S(=O)(=O)NNCNC(=O)c2ccccc2)cc1`: the GI50 in the experiment on OVCAR-4 is > 100 µM (inactive); in the experiment on Malme-3M, > 100 µM (inactive); in the experiment with NCI-H23, > 100 µM (inactive); in the experiment on TK-10, > 100 µM (inactive); in the experiment with OVCAR-8, > 100 µM (inactive); in the experiment on MDA-MB-435, 32.4 µM (inactive). For the same compound, the GI50 with UO-31 is 82.8 µM (inactive); with COLO 205 it was > 100 µM (inactive); with U-251, > 100 µM (inactive); with NCI-H522, > 100 µM (inactive); in the experiment on SK-MEL-2 it was > 100 µM (inactive); in the experiment with DU-145, > 100 µM (inactive). In addition, the GI50 was > 100 µM (inactive) in the experiment on BT-549; > 100 µM (inactive) in the experiment on A549; > 100 µM (inactive) with Hs-578T; 17.6 µM (inactive) with CCRF-CEM; > 100 µM (inactive) in the experiment on 786-0; > 100 µM (inactive) in the experiment with OVCAR-3. Besides, in the experiment with MOLT-4, the GI50 was 24.2 µM (inactive).
Consider `CC(C)(C)OC(=O)N1[C@@H]2Cc3ccc(N)cc3[C@@]1(C)c1ccccc12`, for which the GI50 is 29.8 µM (inactive) with OVCAR-4; 29.9 µM (inactive) in the experiment with Malme-3M; 19.3 µM (inactive) in the experiment with NCI-H23; 35.5 µM (inactive) in the experiment with TK-10; 16.8 µM (inactive) with MDA-MB-435; 40.6 µM (inactive) with UO-31. Moreover, the GI50 with U-251 was 17 µM (inactive); in the experiment on NCI-H522 it was 12.2 µM (inactive); in the experiment with SK-MEL-2, 20 µM (inactive); with DU-145, 30.3 µM (inactive); in the experiment on NCI-H460 it was 21.2 µM (inactive); in the experiment on BT-549 it was 18.7 µM (inactive). Moreover, the GI50 is 35.6 µM (inactive) in the experiment on A549; 36.6 µM (inactive) in the experiment with Hs-578T; 25.8 µM (inactive) with CCRF-CEM; 19.1 µM (inactive) with 786-0; 20.8 µM (inactive) in the experiment with OVCAR-3; 19 µM (inactive) in the experiment with MOLT-4.

The term GI50 denotes the concentration giving 50% growth inhibition.
